Measured values taken from PubChem BioAssay (NCI).
“And” between values parts separate entries of the source, which are not always exact repeats. Identical values can stand only once.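 Where inhibition never reached the appropriate level, the endpoint shown equals the highest concentration tested. Otherwise, values were interpolated linearly from a five-concentration, 48-hour dose response in 96-well plates. The concentration for 50% growth inhibition is given as GI50. The concentration for full growth arrest is given as TGI.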

Tests used:
Test in all cases: NCI anticancer screen, dose series, 48 h
A549 NSCLC = tested on: A549 NSCLC
BT-549 breast = tested on: BT-549 breast
EKVX NSCLC = tested on: EKVX NSCLC
HCT-15 colon = tested on: HCT-15 colon
HS 578T breast = tested on: HS 578T breast
LOX IMVI melanoma = tested on: LOX IMVI melanoma
MDA-MB-231 breast = tested on: MDA-MB-231 breast
NCI/ADR-RES ovarian = tested on: NCI/ADR-RES ovarian
OVCAR-5 ovarian = tested on: OVCAR-5 ovarian
SF-295 CNS = tested on: SF-295 CNS
SF-539 CNS = tested on: SF-539 CNS
SN12C renal = tested on: SN12C renal
TK-10 renal = tested on: TK-10 renal
UACC-257 melanoma = tested on: UACC-257 melanoma
UACC-62 melanoma = tested on: UACC-62 melanoma
NCI-H226 lung = tested on: NCI-H226 lung

Structure (SMILES) | TGI (A549 NSCLC) | TGI (BT-549 breast) [µM] | TGI (EKVX NSCLC) | TGI (HCT-15 colon) | TGI (HS 578T breast) [µM] | TGI (LOX IMVI melanoma) | TGI (MDA-MB-231 breast) [µM] | TGI (NCI/ADR-RES ovarian) [µM] | TGI (OVCAR-5 ovarian) | TGI (SF-295 CNS) | TGI (SF-539 CNS) | TGI (SN12C renal) | TGI (TK-10 renal) | TGI (UACC-257 melanoma) | TGI (UACC-62 melanoma) | GI50 (NCI-H226 lung) [µM] | TGI (NCI-H226 lung) | GI50 (SF-295 CNS)
O=C(NCCCCCCCCNC(=O)Nc1cccc2ccccc12)Nc1cccc2ccccc12 | > 100 µM | > 100 | > 100 µM | > 100 µM | > 100 | 59.1 µM | 23.3 | > 100 | > 100 µM | > 100 µM | 24.6 µM | 59.3 µM | > 100 µM | > 100 µM | > 100 µM | – | – | –
COCN1C(=O)[C@@H]2C[C@@H](O)CN2C(=O)c2ccccc21 | > 100 µM | > 100 | > 100 µM | > 100 µM | > 100 | > 100 µM | > 100 | > 100 | > 100 µM | > 100 µM | – | > 100 µM | > 100 µM | > 100 µM | > 100 µM | – | – | –
O=S(Cc1ccccc1)c1ccccc1Cn1cccc1 (centres undefined) | > 100 µM | > 100 | > 100 µM | > 100 µM | > 100 | > 100 µM | > 100 | > 100 | > 100 µM | > 100 µM | > 100 µM | > 100 µM | > 100 µM | > 100 µM | > 100 µM | – | – | –
N=S(c1ccccc1[N+](=O)[O-])c1ccccc1[N+](=O)[O-] | 9.72 µM and 15.6 µM | 3.13 | 11 µM and 20.8 µM | 2.06 µM and 3.72 µM | > 100 | 1.68 µM and 2.58 µM | 3.4 | – | 7.69 µM and 11.8 µM | 6.16 µM and 15.4 µM | 6.9 µM and 9.89 µM | 2.89 µM and 3.19 µM | 7.42 µM and 6.53 µM | 6.51 µM and 10.1 µM | 9.13 µM and 10.2 µM | 12.6 | 12.3 µM and 30.1 µM | 2.45 µM and 5.99 µM
Cc1[nH]c2ncn3[nH]c(=S)nc3c2c1Cc1ccccc1 | > 100 µM | > 100 | > 100 µM | > 100 µM | > 100 | – | > 100 | > 100 | > 100 µM | > 100 µM | > 100 µM | > 100 µM | > 100 µM | > 100 µM | > 100 µM | – | > 100 µM | –
CSc1nc(-c2ccccc2)[nH]c(=O)n1 | > 100 µM | > 100 | > 100 µM | > 100 µM | > 100 | – | > 100 | > 100 | > 100 µM | > 100 µM | > 100 µM | > 100 µM | > 100 µM | > 100 µM | > 100 µM | – | > 100 µM | –
O=C(NC(CS)C(=O)O)c1c2ccccc2nc2ccccc12 (centres undefined) | > 100 µM | 58.5 | > 100 µM | > 100 µM | – | > 100 µM | > 100 | > 100 | > 100 µM | > 100 µM | > 100 µM | > 100 µM | > 100 µM | > 100 µM | > 100 µM | – | > 100 µM | –
O=C1NC(=O)C(CCC(=O)c2cccc3ccccc23)C(=O)N1 | > 100 µM | > 100 | – | > 100 µM | > 100 | > 100 µM | > 100 | > 100 | > 100 µM | > 100 µM | > 100 µM | > 100 µM | – | > 100 µM | > 100 µM | – | > 100 µM | –
S=C(NCCc1ccccn1)N/N=C(\c1ccccc1)c1ccccn1 | > 100 µM | 39.3 | > 71.6 µM | > 86.5 µM | > 100 | 36.1 µM | > 100 | 1.44 | > 100 µM | > 55.7 µM | 27.1 µM | > 67.3 µM | > 100 µM | > 70.5 µM | > 24.4 µM | – | – | –
COc1c(Sc2c(SCSc3cnc4ccccc4c3Sc3cnc4ccccc4c3OC)cnc3ccccc23)cnc2ccccc12 | > 100 µM | > 100 | > 100 µM | > 100 µM | > 100 | > 100 µM | > 100 | > 100 | > 100 µM | > 100 µM | > 100 µM | > 100 µM | > 100 µM | > 100 µM | > 100 µM | – | – | –
Oc1ccc(Br)cc1C=Nc1c(NC2CCCCC2)oc2ccc(Br)cc12 | > 100 µM | 90.9 | > 100 µM | > 100 µM | – | 38.7 µM | > 100 | > 100 | > 100 µM | > 100 µM | > 100 µM | > 100 µM | > 100 µM | > 100 µM | > 100 µM | – | > 100 µM | –
N#CC(O)CCOCc1ccccc1 (centres undefined) | > 100 µM | > 100 | > 100 µM | > 100 µM | – | > 100 µM | > 100 | > 100 | > 100 µM | > 100 µM | > 100 µM | > 100 µM | > 100 µM | > 100 µM | > 100 µM | – | > 100 µM | –
Brc1ccc(-c2[nH]c3ccccc3c2/C=N\Nc2ccc(-c3nc4ccccc4[nH]3)cc2)cc1 | > 100 µM | > 100 | > 52.2 µM | > 37 µM | < 0.01 | > 100 µM | 0.559 | > 100 | > 67.1 µM | > 100 µM | – | > 100 µM | > 100 µM | > 100 µM | > 100 µM | – | – | –
